From ChEMBL document CHEMBL5053510, “Discovery of AS-1763: A Potent, Selective, Noncovalent, and Orally Available Inhibitor of Bruton's Tyrosine Kinase” (J Med Chem, 2021)

System: OCI-Ly10
Assay: Antiproliferative activity against human OCILY10 cells harboring BTK C481S mutant […] gene assessed as reduction in cell viability after 96 hrs
Format: functional, cell-based
Details: OCI-Ly10, 96 h

`C=CC(=O)N1CCC[C@@H](n2nc(-c3ccc(Oc4ccccc4)cc3)c3c(N)ncnc32)C1` [IBRUTINIB] was tested. Which IC50 did it give?
Its IC50 is 1030 nM.
